Measurements taken from patent US12649735B2 (HAIHE BIOPHARMA CO., LTD., priority 2019, dated 2026).

Legend:
[1] = biological target: T1, bromodomain protein BRD4 BD2 (Homo sapiens, UniProt O60885); assay: HTRF in vitro assay, inhibitory activity against BRD4 BD2; type: binding; conditions: BRD4(2) 30 nM in final system
T1 construct: The proteins BRD4 BD1/BD2 used in the experiment were purchased from Active Motif Company (Cat. No. 31380/31446); purchased Active Motif 31446
Method: (§1) The inhibitory activity of the compound against BRD4 BD1 was determined by using Homogeneous Time-Resolved Fluorescence (HTRF).
(§2) The proteins BRD4 BD1/BD2 used in the experiment were purchased from Active Motif Company (Cat. No. 31380/31446); Streptavidin XL-665 (#610SAXLA) and EPIgeneous Binding Domain Kit A (#62BDAPEG) were purchased from Cisbio Bioassays Company, [Lys(5,8,12,16)Ac]H4(1-21)-biotin (#64989), and [Lys(5,8,12,16)Ac]H4(1-25) were products of AnaSpec company; OTX015 and ABBV-075 were purchased from SelleckChem. 384 Well ProxiPlate (#6008280) was purchased from PerkinElmer. The multifunctional microplate reader used for the experimental was a product of PerkinElmer, model: Envision 2104. The experimental water was Millipore-Q pure water.
(§3) 10 mM of stock solution of compound in DMSO was diluted to 1 mM with DMSO and stored, and then diluted 10 times with Binding Domain dilution buffer (purchased from Cisbio Bioassays) for use (the concentration of DMSO in the final system was […]), 1:5 gradient dilution, a total of 5 concentrations.
(§4) 4. Test Method: 1 Batch, 2 Duplicate Wells
(§5) • 1) 5 μL of test compound was transferred to 45 μL of Binding Domain dilution buffer. • 2) 2 μL of 10× compound (4 μL Binding Domain dilution buffer: positive control; 6 μL enzyme buffer (purchased from Cisbio Bioassays): negative control) was transferred to the reaction plate. • 3) 4 μL of 5×BRD4(1) or BRD4(2) (30 nM in final system) was added to the reaction plate. • 4) 4 μL of 5×[Lys(5,8,12,16)Ac]H4(1-21)-biotin was added to the reaction plate, and the plate was covered with a film, and incubated at 37° C. for 30 min. • 5) A detection mixture of SA-XL665 (2×) and anti-H3K9me0-Eu(K) (2×) was prepared in detection buffer (purchased from Cisbio Bioassays). • 6) 10 μL of detection mixture (2×) was added to each well, and incubated for 3 h at room temperature, and the mp value was read using a multi-plate reader Envision. The parameters were set as follows.

[2] = biological target: T2, bromodomain protein BRD4 BD1 (Homo sapiens, UniProt O60885); assay: HTRF in vitro assay, inhibitory activity against BRD4 BD1; type: binding; conditions: BRD4(1) 30 nM in final system
T2 construct: The proteins BRD4 BD1/BD2 used in the experiment were purchased from Active Motif Company (Cat. No. 31380/31446); purchased Active Motif 31380
Method: In this example, the half inhibitory activity (IC50) of the compounds of the present invention against the bromodomain protein BRD4 BD1 was determined.
as §1, §2, §3, §4, §5

Molecule	IC50 [1] [µM]	IC50 [2] [µM]
Cc1cc(F)cc(C)c1-n1c(-c2cn(C)c(=O)c3[nH]c(C(=O)Nc4ccn(C)n4)cc23)nc2ncccc21 [Compound A52]	≤ 0.01	0.01 to 0.1
CC(c1ccccc1)c1cn(C)c(=O)c2cc(-c3cn(C)nc3[N+](=O)[O-])sc12 (centres unmarked) [Compound A41, 5-methyl-2-(1-methyl-3-nitro-1H-pyrazol-4-yl)-7-(1-phenylethyl)thieno[3,2-c]pyridin-4(5H)-one]	0.1 to 1	0.1 to 1
CC(c1ccc(Cl)cc1)c1cn(C)c(=O)c2[nH]c(C(=O)Nc3cnn(C)c3)cc12 (centres unmarked) [Compound A64, 4-(1-(4-chlorophenyl)ethyl)-6-methyl-N-(1-methyl-1H-pyrazol-4-yl)-7-oxo-6,7-dihydro-1H-pyrrolo[2,3-c]pyridin-2-carboxamide]	0.01 to 0.1	0.1 to 1
Cc1ccc(C2c3ccccc3C(=O)N2c2cn(C)c(=O)c3[nH]c(C(=O)Nc4cn[nH]c4)cc23)cc1 (centres unmarked) [Compound A55]	0.01 to 0.1	0.1 to 1
COc1ccc(C(C)c2cn(C)c(=O)c3[nH]c(-c4cnn(C5COC5)c4)cc23)cc1 (centres unmarked) [Compound A73, 4-(1-(4-methoxyphenyl)ethyl)-6-methyl-2-(1-(oxetan-3-yl)-1H-pyrazol-4-yl)-1,6-dihydro-7H-pyrrolo[2,3-c]pyridin-7-one]	≤ 0.01	0.1 to 1
Cc1ccc(-n2c(-c3cn(C)c(=O)c4[nH]c(-c5cnn(C)c5)cc34)nc3ncccc32)cc1 [Compound A50]	0.01 to 0.1	0.01 to 0.1
CC(c1ccccc1)c1cn(C)c(=O)c2[nH]c(-c3c[nH]cn3)cc12 (centres unmarked) [Compound A47]	≤ 0.01	0.01 to 0.1
4-diphenylmethyl-N-ethylamino-6-methyl-7-oxo-6,7-dihydro-1H-pyrrolo[2,3-c]pyridin-2-carboxamide [Compound A29]	0.01 to 0.1	0.1 to 1
CCNC(=O)c1cc2c(C(O)c3c(C)cccc3C)cn(C)c(=O)c2[nH]1 (centres unmarked) [Compound A23, (4-(2,6-dimethylphenyl)(hydroxy)methyl)-N-ethyl-6-methyl-7-oxo-6,7-dihydro-1H-pyrrolo[2,3-c]pyridin-2-carboxamide]	0.01 to 0.1	0.1 to 1
CC(c1ccc(F)cc1)c1cn(C)c(=O)c2[nH]c(-c3cnn(C(CO)CN4CCN(C)CC4)c3)cc12 (centres unmarked) [Compound A62, 4-(1-(4-fluorophenyl)ethyl)-2-(1-(1-hydroxy-3-(4-methylpiperazin-1-yl)propan-2-yl)-1H-pyrazol-4-yl)-6-methyl-1,6-dihydro-7H-pyrrolo[2,3-c]pyridin-7-one]	≤ 0.01	0.1 to 1
CCNC(=O)c1cc2c(/C(=C/c3ccccc3)c3ccccc3)cn(C)c(=O)c2[nH]1 [Compound A24, (E)-4-(1,2-diphenylvinyl)-N-ethyl-6-methyl-7-oxo-6,7-dihydro-1H-pyrrolo[2,3-c]pyridin-2-carboxamide]	0.01 to 0.1	0.1 to 1
CC(c1ccccc1)c1cn(C)c(=O)c2c(NC(=O)OC(C)(C)C)c(-c3cnn(C)c3)oc12 (centres unmarked) [Compound A61, tert-butyl (5-methyl-2-(1-methyl-1H-pyrazol-4-yl)-4-oxo-7-(1-phenethyl)-4,5-dihydrofuro[3,2-c]pyridin-3-yl carbamate]	≤ 0.01	0.1 to 1
CCNC(=O)c1cc2c(-c3cn(C)nc3C(C)c3ccccc3)cn(C)c(=O)c2[nH]1 (centres unmarked) [Compound A33, N-ethyl-6-methyl-4-(1-methyl-3-(1-phenylethyl)-1H-pyrazol-4-yl)-7-oxo-6,7-dihydro-1H-pyrrolo[2,3c]pyridin-2-carboxamide]	0.01 to 0.1	0.1 to 1
Cc1nocc1-c1cc2c(C(C)c3ccccc3)cn(C)c(=O)c2[nH]1 (centres unmarked) [Compound A21]	0.01 to 0.1	0.1 to 1
Cn1cc(C(CCO)c2ccccn2)c2cc(C(=O)NC3CC3)[nH]c2c1=O (centres unmarked) [Compound A9, N-cyclopropyl-4-(3-hydroxy-1-(pyridin-2-yl)propyl)-6-methyl-7-oxo-6,7-dihydro-1H-pyrrolo[2,3-c]pyridin-2-carboxamide]	0.01 to 0.1	0.1 to 1
Cn1cc(Cc2ccccc2)c2c[nH]cc2c1=O [Compound A1]	0.01 to 0.1	0.1 to 1

Molecule	IC50 [1] [µM]	IC50 [2] [µM]
CCNC(=O)c1cc2c(-c3cc(C(C)=O)c4cccnc4c3OC)cn(C)c(=O)c2[nH]1 [Compound A37, 4-(5-acetyl-8-methoxyquinolin-7-yl)-N-ethyl-6-methyl-7-oxo-6,7-dihydro-1H-pyrrolo[2,3-c]pyridin-2-carboxamide]	0.01 to 0.1	0.1 to 1
Cc1cc(C)cc(-n2c(-c3cn(C)c(=O)c4[nH]c(C(=O)Nc5ccn(C)n5)cc34)nc3ncccc32)c1 [Compound A51]	≤ 0.01	0.01 to 0.1
CC(c1ccccc1)c1cn(C)c(=O)c2[nH]c(-c3ccoc3)cc12 (centres unmarked) [Compound A46]	≤ 0.01	0.01 to 0.1
Cc1ccc(C2CCC(=O)N2c2cn(C)c(=O)c3[nH]c(-c4cnn(C)c4)cc23)cc1 (centres unmarked) [Compound A48, 6-methyl-2-(1-methyl-1H-pyrazol-4-yl)-4-(2-oxo-5-(p-tolyl)pyrrolidin-1-yl)-1,6-dihydro-7H-pyrrolo[2,3-c]pyridin-7-one]	0.01 to 0.1	0.1 to 1
CCNC(=O)c1cc2c(C(C)c3ccc4ccccc4c3)cn(C)c(=O)c2[nH]1 (centres unmarked) [Compound A22, N-ethyl-6-methyl-4-(1-(naphthalen-2-yl)ethyl)-7-oxo-6,7-dihydro-1H-pyrrolo[2,3-c]pyridin-2-carboxamide]	0.01 to 0.1	0.1 to 1
Cc1ccc(-c2cn(C)nc2-c2cn(C)c(=O)c3[nH]c(C(=O)Nc4cn[nH]c4)cc23)cc1 [Compound A56, 6-methyl-4-(1-methyl-4-(p-tolyl)-1H-pyrazol-3-yl)-7-oxo-N-(1H-pyrazol-4-yl)-6,7-dihydro-1H-pyrrolo[2,3-c]pyridin-2-carboxamide]	0.01 to 0.1	0.1 to 1
6-methyl-7-carbonyl-4-(1-phenylethyl)-N-(tetrahydro-2H-pyran-4-yl)-6,7-dihydro-1H-pyrrolo[2,3-c]pyridin-2-carboxamide [Compound A6]	≤ 0.01	0.1 to 1
Cn1cc2c(Cc3ccccc3)cn(C)c(=O)c2c1 [Compound A2]	0.01 to 0.1	0.1 to 1
Cn1cc(C(c2ccccc2)c2ccccc2)c2cc(-c3cnn(C4COC4)c3)[nH]c2c1=O [Compound A71]	0.01 to 0.1	0.1 to 1
Cc1cc(C)cc(-n2c(-c3cn(C)c(=O)c4[nH]c(-c5cnn(C)c5)cc34)nc3ncccc32)c1 [Compound A49, 4-(1-(3,5-dimethylphenyl)-1H-imidazo[4,5-b]pyridin-2-yl)-6-methyl-2-(1-methyl-1H-pyrazol-4-yl)-1,6-di hydro-7H-pyrrolo[2,3-c]pyridin-7-one]	≤ 0.01	0.01 to 0.1
CC(c1ccccc1)c1cn(C)c(=O)c2[nH]c(-c3cn[nH]c3)cc12 (centres unmarked) [Compound A15, 6-methyl-4-(1-phenethyl)-2-(1H-pyrazol-4-yl)-1,6-dihydro-7H-pyrrolo[2,3-c]pyridin-7-one]	≤ 0.01	0.1 to 1
4-(methoxy(phenyl)methyl)-6-methyl-2-(1-(oxetan-3-yl)-1H-pyrazol-4-yl)-1-tolyl-1,6-dihydro-7H-pyrrolo[2,3-c]pyridin-7-one [Compound A70]	0.01 to 0.1	0.1 to 1
COC(c1ccccc1)c1cn(C)c(=O)c2[nH]c(-c3cnn(C)c3)cc12 (centres unmarked) [Compound A43, 4-(methoxy(phenyl)methyl)-6-methyl-2-(1-methyl-1H-pyrazol-4-yl)-1,6-dihydro-7H-pyrrolo[2,3-c]pyridin-7-one]	0.01 to 0.1	0.1 to 1
CCNC(=O)c1cc2c(-c3c(C(=O)NCC)cnn3C(C)c3ccccc3)cn(C)c(=O)c2[nH]1 (centres unmarked) [Compound A35, N-ethyl-4-(4-(ethylcarbamoyl)-1-(1-phenylethyl)-1H-pyrazol-5-yl)-6-methyl-7-oxo-6,7-dihydro-1H-pyrrolo[2,3-c]pyridin-2-carboxamide]	0.01 to 0.1	0.1 to 1
CC(c1ccccc1)c1cn(C)c(=O)c2[nH]c(-c3cnn(C)c3)cc12 (centres unmarked) [Compound A18, 6-methyl-2-(1-methyl-1H-pyrazol-4-yl)-4-(1-phenethyl)-1,6-dihydro-7H-pyrrolo[2,3-c]pyridin-7-one]	≤ 0.01	0.1 to 1
